Measured values: patent US20250352539A1, “COMBINATION THERAPY FOR TREATING CANCER” (AstraZeneca AB, priority 2022, published 2025)
Where “and” joins values, the source holds several entries; their conditions need not be identical. Identical values can stand only once. Like-named read-outs stand apart in the source and are kept apart here.

Key:
Type in all cases: cell-based
AGS = assay: 144-hour CellTiter-Glo 2.0 proliferation assay; details: Homo sapiens; AGS gastric; monotherapy; read-out: mono GI50
Experimental: (§1) Combination profiling was carried out in a panel of cancer cell lines utilising Horizon Discovery's High Throughput Screening platform.
(§2) Cell lines that have been preserved in liquid nitrogen are thawed and expanded in growth media (see Table 1). Once cells have reached expected doubling times, screening begins. Cells are seeded in 25 μl of growth media in black 384-well tissue culture treated plates (seeding density as noted in Table 11).
(§3) Cells are equilibrated in assay plates via centrifugation and placed at 37° C. 5% CO2 for twenty-four hours before treatment.
(§4) Compounds are transferred to assay plates using and Echo acoustic liquid handling system. 25 nl of each compound was added at the appropriate concentration for all combination dose points. Therefore, final assay volume would be […]. Assay plates are incubated with compound for 6 days and are then analysed using CellTiter-Glo 2.0. All data points are collected via automated processes and are subject to quality control and analysed.
(§5) Growth Inhibition (GI) is reported as a measure of cell growth. The GI percentages are calculated by applying the following test and equation: […]
(§6) where T is the signal measure for a test article, V is the untreated/vehicle-treated control measure, and Vo is the untreated/vehicle control measure at time zero (also colloquially referred as T0 plates). This formula is derived from the Growth Inhibition calculation used in the National Cancer Institute's NCI-60 high throughput screen. For the purposes of this report, all data analysis was performed in Growth Inhibition (except where noted).

BxPC-3 = assay: 144-hour CellTiter-Glo 2.0 proliferation assay; details: monotherapy, read-out: mono GI50
Experimental: as §1, §2, §3, §4, §5, §6

COV362 = assay: 144-hour CellTiter-Glo 2.0 proliferation assay; details: COV362 ovarian; monotherapy; read-out: mono GI50
Experimental: as §1, §2, §3, §4, §5, §6

Caov-3 = assay: 144-hour CellTiter-Glo 2.0 proliferation assay; details: Homo sapiens; Caov-3 ovarian; monotherapy; read-out: mono GI50
Experimental: as §1, §2, §3, §4, §5, §6

Gp2D = assay: 144-hour CellTiter-Glo 2.0 proliferation assay; details: Gp2D colorectal; monotherapy; read-out: mono GI50
Experimental: as §1, §2, §3, §4, §5, §6

HCT-116 = assay: 144-hour CellTiter-Glo 2.0 proliferation assay; details: Homo sapiens; HCT-116 colorectal; monotherapy; read-out: mono GI50
Experimental: as §1, §2, §3, §4, §5, §6

HGC-27 = assay: 144-hour CellTiter-Glo 2.0 proliferation assay; details: Homo sapiens; HGC-27 gastric; monotherapy; read-out: mono GI50
Experimental: as §1, §2, §3, §4, §5, §6

HPAF-II = assay: 144-hour CellTiter-Glo 2.0 proliferation assay; details: Homo sapiens; HPAF-II pancreatic; monotherapy; read-out: mono GI50
Experimental: as §1, §2, §3, §4, §5, §6

KP-3 = assay: 144-hour CellTiter-Glo 2.0 proliferation assay; details: KP-3 pancreatic; monotherapy; read-out: mono GI50
Experimental: as §1, §2, §3, §4, §5, §6

KURAMOCHI = assay: 144-hour CellTiter-Glo 2.0 proliferation assay; details: KURAMOCHI ovarian; monotherapy; read-out: mono GI50
Experimental: as §1, §2, §3, §4, §5, §6

LS-513 = assay: 144-hour CellTiter-Glo 2.0 proliferation assay; details: Homo sapiens; LS-513 colorectal; monotherapy; read-out: mono GI50
Experimental: as §1, §2, §3, §4, §5, §6

LoVo = assay: 144-hour CellTiter-Glo 2.0 proliferation assay; details: Homo sapiens; LoVo colorectal; monotherapy; read-out: mono GI50
Experimental: as §1, §2, §3, §4, §5, §6

MIA PaCa-2 = assay: 144-hour CellTiter-Glo 2.0 proliferation assay; details: monotherapy, read-out: mono GI50
Experimental: as §1, §2, §3, §4, §5, §6

MKN74 = assay: 144-hour CellTiter-Glo 2.0 proliferation assay; details: Homo sapiens, MKN-74; MKN74 gastric; monotherapy; read-out: mono GI50
Experimental: as §1, §2, §3, §4, §5, §6

OVCAR-3 = assay: 144-hour CellTiter-Glo 2.0 proliferation assay; details: Homo sapiens; OVCAR-3 ovarian; monotherapy; read-out: mono GI50
Experimental: as §1, §2, §3, §4, §5, §6

OVK18 = assay: 144-hour CellTiter-Glo 2.0 proliferation assay; details: OVK18 ovarian; monotherapy; read-out: mono GI50
Experimental: as §1, §2, §3, §4, §5, §6

PA-1 = assay: 144-hour CellTiter-Glo 2.0 proliferation assay; details: Homo sapiens; PA-1 ovarian; monotherapy; read-out: mono GI50
Experimental: as §1, §2, §3, §4, §5, §6

RKO = assay: 144-hour CellTiter-Glo 2.0 proliferation assay; details: Homo sapiens; RKO colorectal; monotherapy; read-out: mono GI50
Experimental: as §1, §2, §3, §4, §5, §6

SK-OV-3 = assay: 144-hour CellTiter-Glo 2.0 proliferation assay; details: Homo sapiens; SK-OV-3 ovarian; monotherapy; read-out: mono GI50
Experimental: as §1, §2, §3, §4, §5, §6

SNU-324 = assay: 144-hour CellTiter-Glo 2.0 proliferation assay; details: SNU-324 pancreatic; monotherapy; read-out: mono GI50
Experimental: as §1, §2, §3, §4, §5, §6

SW620 = assay: 144-hour CellTiter-Glo 2.0 proliferation assay; details: Homo sapiens, SW-620; SW620 colorectal; monotherapy; read-out: mono GI50
Experimental: as §1, §2, §3, §4, §5, §6

SJ-G2 IDHm = assay: 7 days treatment combination assay in glioblastoma cell lines (Cell Titer Glow 2.0); details: 168 h, paediatric GBM
Experimental: (§7) The assay was carried out in the following glioblastoma cell lines: • U87 • U87 R132H • T98G • SJ-G2 ctrl • SJ-G2 IDH using AZD6738 and AZD9574
(§8) The cells were seeded the day before drug treatment in 150 μl per well of 96-well plate. For SJ-G2 cells, the plates were coated with poly-Lysine solution for 15 minutes, washed twice with sterile water and dried for 1 hour.
(§9) The seeding numbers were (cells per well): U87-500; T98G-500; SJ-G2 ctrl-1000; SJ-G2 IDH.
(§10) The compounds were added via a drug dispenser according to the following scheme:
(§11) after 7 Days: • (a) for SJ-G2, 75 μl Cell Titer Glow 2.0 solution (Promega) was added and incubated for 15 minutes at 37° C. The cells were then read using a plate reader. • (b) for U87 and T98G, 75 μl of 37% formaldehyde was added and fixed for 20 minutes at room temperature. This was then washed twice with PBS, followed by Hoeschst staining for 1 hour at room temperature (Hoeschst 1:10000 in PBS). This was then washed twice in PBS and the plates sealed. The plates were then imaged on Cell Insight with 10× magnification at the 25 position. Hoeschst positive nuclei were identified as objects, and cell survival was analysed by counting objects (Hoeschst positive nuclei) with the corresponding settings for U87 or T98G.
(§12) An analysis of drug synergy was then carried out to yield a HSA score

SJ-G2 WT = assay: as above; details: 168 h, paediatric GBM
Experimental: as §7, §8, §9, §10, §11, §12

SMILES: C[C@@H]1COCCN1c1cc(C2([S@](C)(=N)=O)CC2)nc(-c2ccnc3[nH]ccc23)n1 [AZD6738, 4-{4-[(3R)-3-Methylmorpholin-4-yl]-6-[1-((R)—S-methylsulfonimidoyl)cyclopropyl]pyrimidin-2-yl}-1H-pyrrolo[2,3-b]-pyridine]
- GI50 (AGS): 1.21 µM
- GI50 (BxPC-3; BxPC-3 pancreatic): 1.09 µM
- GI50 (BxPC-3; Homo sapiens, BXPC-3, BxPC-3 pancreatic): 1.08 µM
- GI50 (COV362): 1.06 µM
- GI50 (Caov-3): 0.197 µM
- GI50 (Gp2D): 0.501 µM
- GI50 (HCT-116): 0.687 µM
- GI50 (HGC-27): 1.15 µM
- GI50 (HPAF-II): 1.03 µM
- GI50 (KP-3): 1.28 µM and 1.9 µM
- GI50 (KURAMOCHI): 0.729 µM
- GI50 (LS-513): 0.645 µM
- GI50 (LoVo): 0.401 µM
- GI50 (MIA PaCa-2; Homo sapiens, MIA PaCa-2, MIA PaCa-2 pancreatic): 1.2 µM
- GI50 (MIA PaCa-2; MIA PaCa-2 pancreatic): 1.93 µM
- GI50 (MKN74): 0.741 µM
- GI50 (OVCAR-3): 0.37 µM
- GI50 (OVK18): 0.921 µM
- GI50 (PA-1): 1.22 µM
- GI50 (RKO): 1.02 µM
- GI50 (SK-OV-3): 1.28 µM
- GI50 (SNU-324): 0.476 µM and 0.534 µM
- GI50 (SW620): 0.853 µM
- IC50 (SJ-G2 IDHm): 0.308 µM
- IC50 (SJ-G2 WT): 0.16 µM
